Values quoted from earlier work, collected in patent US20110290909A1, “MULTI-COMPONENT INSECT ATTRACTANT” (priority 2006, published 2011).

Experiments:
male melon flies = conditions: cue lure compared with raspberry ketone
male melon fruit flies = conditions: in vivo

Compound | effects on mating success (male melon flies) | effectiveness as chemical attractant for male melon fruit flies (male melon fruit flies)
CC(=O)CCc1ccc(OC(C)=O)cc1 [cue lure] | similar, short-lasting effects | 
CC(=O)CCc1ccc(O)cc1 [raspberry ketone] | similar, short-lasting effects | very effective chemical attractant
